In test [1] the test system is Salinispora tropica CNB440. In words: Production of Salinosporamide A and analogs in shake flask culture; titers by HPLC. The settings on record: Ex.21, CoCl2·6H2O 208 μg/L seed, 52 μg/L production vs no cobalt. As for the experimental part: (§1) To determine the production profile of Low Sodium Frozen Stocks cultures of CNB440, CNB476 and NPS21184 grown up in low sodium production medium, 5 mL each of the 48-hour second seed culture samples of CNB476 and NPS21184 was used to inoculate 100 mL of production medium having the same composition as the seed medium in a 500-mL Erlenmeyer flasks. For CNB440, 5 mL of the 72 hour second seed culture sample was used to inoculate 100 mL of production medium having the same composition as the seed medium in a 500-mL Erlenmeyer flasks. The production cultures were incubated at 250 rpm and 28° C.
(§2) 3.5 mL of the fermentation culture was mixed with equal volume of EtOAc in an extraction tube to extract the various metabolites from the production culture. The mixture was shaken on the shaker for 1 hr. […]
(§3) The production of Salinosporamide A, NPI-0047 and NPI-2065 was monitored by Agilent HP1100 HPLC using an ACE C-18 reversed-phase column (4.6×150 mm), and solvent system consisting of water (0.01% TFA) as solvent A and acetonitrile (0.01% TFA) as solvent B. The elution was started at 100% solvent A for 1 min, 100% solvent A to 35% solvent A gradient in 7 min, held at 35% solvent A for 11 min, 35% solvent A to 100% solvent B in 8 min and held at 100% solvent B for 9 min at a flow rate of 1.5 mL/min with the detector wavelength set at 210 nm and column temperature 35° C. […]

The subject of test [2] is Salinispora tropica CNB476. The test is described as above. The settings on record: Ex.21, CoCl2·6H2O 208 μg/L seed, 52 μg/L production vs no cobalt. On the procedure: as §1, §2, §3

The structures appear in SMILES notation.

`CC[C@H]1C(=O)N[C@@]2([C@@H](O)[C@@H]3C=CCCC3)C(=O)O[C@@]12C` [NPI-0047, Salinosporamide B]: the “reduction of production by cobalt” value worked out at 48% in test [1] and 52% in test [2].

For the origin of these results see patent US10011814B2, “Salt formulations for the fermentation of marine microorganisms” (Triphase Research and Development I Corp., priority 2006, dated 2018).
